PubChem BioAssay (NCI)
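Dose response: 5 concentrations. Exposure: 48 h. Format: 96-well plates. Endpoint: linear interpolation; highest concentration if not reached. TGI marks complete inhibition of growth.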

Tests used:
Experiment in all cases: growth of human tumour cells (NCI), 48 h
786-0 renal = system: 786-0 renal
A498 renal = system: A498 renal
A549 NSCLC = system: A549 NSCLC
ACHN renal = system: ACHN renal
BT-549 breast = system: BT-549 breast
CAKI-1 renal = system: CAKI-1 renal
CCRF-CEM leukemia = system: CCRF-CEM leukemia
COLO 205 colon = system: COLO 205 colon
DU-145 prostate = system: DU-145 prostate
EKVX NSCLC = system: EKVX NSCLC
HCC-2998 colon = system: HCC-2998 colon
HCT-116 colon = system: HCT-116 colon
HCT-15 colon = system: HCT-15 colon
HL-60(TB) leukemia = system: HL-60(TB) leukemia
HOP-62 NSCLC = system: HOP-62 NSCLC
HS 578T breast = system: HS 578T breast
HT29 colon = system: HT29 colon
IGROV1 ovarian = system: IGROV1 ovarian
K-562 leukemia = system: K-562 leukemia
KM12 colon = system: KM12 colon
LOX IMVI melanoma = system: LOX IMVI melanoma
M14 melanoma = system: M14 melanoma
MALME-3M melanoma = system: MALME-3M melanoma
MCF7 breast = system: MCF7 breast
MDA-MB-231 breast = system: MDA-MB-231 breast
MDA-MB-435 = system: MDA-MB-435
MDA-N = system: MDA-N
MOLT-4 leukemia = system: MOLT-4 leukemia
NCI-H226 lung = system: NCI-H226 lung
NCI-H23 lung = system: NCI-H23 lung
NCI-H460 lung = system: NCI-H460 lung
NCI-H522 lung = system: NCI-H522 lung
NCI/ADR-RES ovarian = system: NCI/ADR-RES ovarian
OVCAR-3 ovarian = system: OVCAR-3 ovarian
OVCAR-4 ovarian = system: OVCAR-4 ovarian
OVCAR-5 ovarian = system: OVCAR-5 ovarian
OVCAR-8 ovarian = system: OVCAR-8 ovarian
PC-3 prostate = system: PC-3 prostate
RPMI-8226 leukemia = system: RPMI-8226 leukemia
SF-268 CNS = system: SF-268 CNS
SF-295 CNS = system: SF-295 CNS
SF-539 CNS = system: SF-539 CNS
SK-MEL-2 melanoma = system: SK-MEL-2 melanoma
SK-MEL-28 melanoma = system: SK-MEL-28 melanoma
SK-MEL-5 melanoma = system: SK-MEL-5 melanoma
SK-OV-3 ovarian = system: SK-OV-3 ovarian
SN12C renal = system: SN12C renal
SNB-19 CNS = system: SNB-19 CNS
SR leukemia = system: SR leukemia
SW-620 colon = system: SW-620 colon
TK-10 renal = system: TK-10 renal
U251 CNS = system: U251 CNS
UACC-257 melanoma = system: UACC-257 melanoma
UACC-62 melanoma = system: UACC-62 melanoma
UO-31 renal = system: UO-31 renal

`Clc1ccc(CCN[C@H]2CCCC[C@H]2N2CCCC2)cc1Cl` was tested, and the TGI (786-0 renal) was 77 µM, the TGI (A498 renal) was 40.5 µM and the TGI (A549 NSCLC) was 89.6 µM. It also gave a TGI (ACHN renal) of over 100 µM, a TGI (BT-549 breast) of 59.9 µM and a TGI (CAKI-1 renal) of over 100 µM. It also gave a TGI (CCRF-CEM leukemia) of over 100 µM, a TGI (COLO 205 colon) of 29.8 µM and a TGI (DU-145 prostate) of 59.8 µM. It also gave a TGI (EKVX NSCLC) of over 100 µM, a TGI (HCC-2998 colon) of 22.3 µM and a TGI (HCT-116 colon) of over 100 µM. It also gave a TGI (HCT-15 colon) of 49.5 µM, a TGI (HL-60(TB) leukemia) of 50 µM and a TGI (HOP-62 NSCLC) of 48.2 µM. The TGI (HS 578T breast) was over 100 µM, the TGI (HT29 colon) was 49.9 µM and the TGI (IGROV1 ovarian) was 35.1 µM. It also gave a TGI (K-562 leukemia) of over 100 µM, a TGI (KM12 colon) of 35.1 µM and a TGI (LOX IMVI melanoma) of 32.4 µM. For the same molecule, the TGI (M14 melanoma) was 30.3 µM, the TGI (MALME-3M melanoma) was 30.3 µM and the TGI (MCF7 breast) was 35.7 µM. It also gave a TGI (MDA-MB-231 breast) of over 100 µM, a TGI (MDA-MB-435) of 43.8 µM and a TGI (MDA-N) of 38.5 µM. For the same molecule, the TGI (MOLT-4 leukemia) was over 100 µM, the TGI (NCI-H226 lung) was 48.7 µM and the TGI (NCI-H23 lung) was 58.8 µM. For the same molecule, the TGI (NCI-H460 lung) was 58.4 µM, the TGI (NCI-H522 lung) was 32.9 µM and the TGI (NCI/ADR-RES ovarian) was over 100 µM. For the same molecule, the TGI (OVCAR-3 ovarian) was 65.2 µM, the TGI (OVCAR-4 ovarian) was 89.4 µM and the TGI (OVCAR-5 ovarian) was 78.1 µM. For the same molecule, the TGI (OVCAR-8 ovarian) was over 100 µM, the TGI (PC-3 prostate) was over 100 µM and the TGI (RPMI-8226 leukemia) was 97.1 µM. For the same molecule, the TGI (SF-268 CNS) was over 100 µM, the TGI (SF-295 CNS) was 30.2 µM and the TGI (SF-539 CNS) was 75.3 µM. For the same molecule, the TGI (SK-MEL-2 melanoma) was 44.1 µM, the TGI (SK-MEL-28 melanoma) was 86.2 µM and the TGI (SK-MEL-5 melanoma) was 28.5 µM. It also gave a TGI (SK-OV-3 ovarian) of 78.2 µM, a TGI (SN12C renal) of 54.3 µM and a TGI (SNB-19 CNS) of 69.5 µM. The TGI (SR leukemia) was over 100 µM, the TGI (SW-620 colon) was over 100 µM and the TGI (TK-10 renal) was 22.9 µM. The TGI (U251 CNS) was over 100 µM, the TGI (UACC-257 melanoma) was 28.5 µM and the TGI (UACC-62 melanoma) was 34.9 µM. The TGI (UO-31 renal) was 31.2 µM.
